The source made the active and inactive calls.

A short description of assay [1]: blockers of HIV-1 ZM109 envelope-driven cell-cell fusion – HeLa effector, CEM target cells, luciferase, cherry-pick, dose response (AID 652058).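 Note: luciferase signal from HIV-1 Env mediated cell-cell fusion of effector and target cells.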 The class given is functional, cell-based.
Assay [2] is described as follows: viability loss in CEM21 cells – cell-based, CellTiter-Glo luminescence, cherry-picked, cytotoxicity control for viral fusion inhibitor project, dose response (AID 652042).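 Note: potency for signal decrease meaning cytotoxicity.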 The class given is functional. For orientation: ATP-based viability assays read luminescence as a measure of living cells.
Assay [3] in a line: HIV-1 AD8 envelope cell-cell fusion blockers – cherry-pick, dose response (AID 652062).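 Note: luciferase signal from cell-cell fusion driven by HIV-1 clade B AD8 Env; potency is for inhibitors of fusion seen as a drop in luminescence.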 The class given is functional, cell-based.
The nature of assay [4]: blockers of HIV-1 envelope-mediated cell-cell fusion – cherry-pick, dose response (AID 652057). The assay is classed as functional, cell-based.
The nature of assay [5]: off-target signal loss in HeLa-CEM21 co-culture – HeLa F-luc CTL cells, cherry-picked, counter-screen for HIV-1 Env fusion inhibitor project, dose response (AID 652040).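 Note: potency for signal decrease marking cytotoxic or nonspecific inhibition.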 The class given is functional, cell-based. (Counterscreens check selectivity or assay interference.)
The target in assay [6] is T1, Long-chain-fatty-acid--AMP ligase FadD28 (Mycobacterium tuberculosis, UniProt P9WQ59).
T1 sequence (P9WQ59 whole entry): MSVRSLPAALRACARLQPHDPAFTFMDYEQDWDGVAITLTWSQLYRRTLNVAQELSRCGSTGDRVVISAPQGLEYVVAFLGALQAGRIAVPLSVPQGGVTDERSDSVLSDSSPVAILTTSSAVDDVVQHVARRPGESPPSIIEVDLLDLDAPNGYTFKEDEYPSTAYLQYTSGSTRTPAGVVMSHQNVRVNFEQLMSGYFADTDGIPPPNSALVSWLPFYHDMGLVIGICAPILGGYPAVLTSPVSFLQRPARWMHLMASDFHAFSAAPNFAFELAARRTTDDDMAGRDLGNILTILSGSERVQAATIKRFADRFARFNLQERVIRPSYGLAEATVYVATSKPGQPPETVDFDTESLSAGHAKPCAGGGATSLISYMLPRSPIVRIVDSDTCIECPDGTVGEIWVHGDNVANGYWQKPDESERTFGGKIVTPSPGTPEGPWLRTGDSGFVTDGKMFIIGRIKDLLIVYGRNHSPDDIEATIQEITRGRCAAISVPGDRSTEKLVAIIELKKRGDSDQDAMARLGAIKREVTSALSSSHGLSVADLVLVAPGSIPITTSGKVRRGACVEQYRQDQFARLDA
As to the kind of experiment: Fluorescence polarization aasay to screen for inhibitors that compete for the binding of FadD28 to a bisubstrate Measured in Biochemical System Using Plate Reader - 2147-01_Inhibitor_Dose_CherryPick_Activity. The assay is classed as functional, Mycobacterium tuberculosis H37Rv. A general note: Polarisation of emitted light reports the rotation of a fluorescent probe.

In assay [7] the target is DNA (cytosine-5)-methyltransferase 1 (Homo sapiens, UniProt P26358). As to the kind of experiment: inhibition of DNA methylation by DNMT1 – biochemical, fluorescent molecular beacon, confirmation (AID 602386). The assay is classed as functional.
The nature of assay [8]: Counterscreen for activators of the function of SWI/SNF related, matrix associated, actin dependent regulator of chromatin, subfamily a, member 2 (SMARCA2, BRM): Luminescence-based cell-based high throughput dose response assay to identify non-selective compounds using the VP16 reporter assay. The class given is functional.
The target in assay [9] is SWI/SNF-related matrix-associated actin-dependent regulator of chromatin subfamily A member 2 (Homo sapiens, UniProt P51531). As to the kind of experiment: Luminescence-based cell-based high throughput dose response assay to identify activators of the function of SWI/SNF related, matrix associated, actin dependent regulator of chromatin, subfamily a, member 2 (SMARCA2, BRM). The class given is functional.

The nature of assay [10]: general mammalian cell viability loss – activator set, cherry-pick, cytotoxicity control for miR-122 modulator project, dose response (AID 720690).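 Note: HEK293T human cells scored for general mammalian cytotoxicity.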 The assay is classed as functional, cell-based.
Assay [11] is described as follows: toxicity to human hepatoma HepG2 cells – cell-based, cherry-picked samples, cytotoxicity control, dose response (AID 1159577). The class given is functional.
Assay [12] is described as follows: activation of miR-122 Renilla sensor silencing – cell-based, Huh7 psiCHECK-miR122, Renilla luciferase, cherry-picked, dose response (AID 651956).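 Note: huh7 hepatoma cells stably carrying a psiCHECK-2 miR-122 sensor plasmid; renilla luciferase signal reporting endogenous miR-122 activity after 48 h compound exposure.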 The class given is functional.
The nature of assay [13]: general mammalian cell viability loss – inhibitor set, cherry-pick, set 2, cytotoxicity control for miR-122 modulator project, dose response (AID 720697). The assay is classed as functional, cell-based.
A short description of assay [14]: P. falciparum Dd2 growth inhibitors, dose response, SYBR Green, cherry-picked samples (AID 1159567). The assay is classed as functional, cell-based.
The target of another assay is Albumin (Bos taurus, UniProt P02769). The experiment in a line: Counterscreen for inhibitors of T-cell receptor (TCR)-CD3 interaction: Fluorescence-based biochemical high throughput dose response assay to identify inhibitors of T-cell receptor (TCR)-CD3 interaction using a TAMRA-labeled BSA probe. The class given is functional.
The nature of assay [15]: NIH-3T3 fibroblast cytotoxicity, dose response, cytotoxicity control, cell-based, fluorescence, Alamar Blue, secondary assay (AID 2327).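 Note: NIH-3T3 mouse fibroblasts cultured with fluconazole at 8 µg/mL.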 The class given is functional.
The nature of assay [16]: fluconazole-exposed Candida albicans growth modulators – fluorescence, retest, confirmation (AID 2467). The class given is functional, cell-based.
For assay [17], the target named is T2, Nuclear receptor subfamily 0 group B member 1 (Homo sapiens, UniProt P51843).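 Note: HEK293T cells transfected with SF-1 and DAX-1 plus StAR promoter luciferase reporter.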
T2 sequence (P51843 whole entry): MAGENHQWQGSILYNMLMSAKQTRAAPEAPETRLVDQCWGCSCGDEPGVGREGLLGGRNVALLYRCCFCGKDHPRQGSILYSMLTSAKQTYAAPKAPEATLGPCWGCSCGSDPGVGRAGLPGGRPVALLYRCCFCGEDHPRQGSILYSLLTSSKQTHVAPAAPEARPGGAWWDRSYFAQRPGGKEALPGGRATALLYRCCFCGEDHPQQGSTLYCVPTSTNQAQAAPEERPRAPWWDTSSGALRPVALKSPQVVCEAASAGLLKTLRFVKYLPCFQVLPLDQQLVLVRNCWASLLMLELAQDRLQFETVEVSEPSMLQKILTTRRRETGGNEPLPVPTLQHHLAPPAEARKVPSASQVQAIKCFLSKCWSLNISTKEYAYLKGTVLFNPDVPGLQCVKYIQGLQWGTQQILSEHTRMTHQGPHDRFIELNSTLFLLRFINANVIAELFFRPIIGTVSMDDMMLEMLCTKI
The assay is classed as functional, cell-based.

Another assay can be described thus: cells. The assay is classed as functional, cell-based.
Assay [18] has as its system HEK293. As to the kind of experiment: cells. The assay is classed as functional, cell-based. The note with it: Homo sapiens.
The test system of another assay is Streptococcus. The experiment in a line: GAS UMAA2166 growth inhibition – luminescence, BacTiterGlo, counter-screen for streptokinase expression inhibitor project, dose response (AID 1915).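 Note: potency for reduction of bacterial viability or growth.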 The assay is classed as functional, organism-based.
Assay [19] has as its system Streptococcus sp. 'group A'. As to the kind of experiment: Streptococcus pyogenes SK(-)GAS viability under kanamycin – luminescence, BacTiterGlo, confirmation, counter-screen for streptokinase expression inhibitor project, dose response (AID 1900). The class given is functional, organism-based. The following applies: read-out: EC50.
In assay [20] the test system is HEK293. As to the kind of experiment: NOD2 signaling inhibitors in MDP-stimulated cells, cell-based, uHTS, luminescence (AID 2001). The note with it: Homo sapiens. The class given is functional.
For assay [21], the system named is HEK293. As to the kind of experiment: inhibition of NOD1-driven NF-kB reporter – cell-based, luminescence, uHTS, primary screen (AID 1578). The class given is functional. The note with it: Homo sapiens.
Assay [22] deals with HEK293. The experiment in a line: cells. The assay is classed as functional, cell-based. The following applies: Homo sapiens. The source holds these as a separate data set.
The next assay concerns INS1. The experiment in a line: INS-1E survival protection against cytokine death – cell-based, luminescence, retest, dose response (AID 449756).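 Note: cell death triggered by IL-1 beta plus TNF-alpha plus IFN-gamma mixture; protective hits raise ATP signal compared with cytokine alone wells.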 The class given is functional. The note with it: Rattus norvegicus.
A further assay has as its target T3, Streptokinase A (Streptococcus pyogenes serotype M1, UniProt P10520).
T3 sequence (P10520 whole entry): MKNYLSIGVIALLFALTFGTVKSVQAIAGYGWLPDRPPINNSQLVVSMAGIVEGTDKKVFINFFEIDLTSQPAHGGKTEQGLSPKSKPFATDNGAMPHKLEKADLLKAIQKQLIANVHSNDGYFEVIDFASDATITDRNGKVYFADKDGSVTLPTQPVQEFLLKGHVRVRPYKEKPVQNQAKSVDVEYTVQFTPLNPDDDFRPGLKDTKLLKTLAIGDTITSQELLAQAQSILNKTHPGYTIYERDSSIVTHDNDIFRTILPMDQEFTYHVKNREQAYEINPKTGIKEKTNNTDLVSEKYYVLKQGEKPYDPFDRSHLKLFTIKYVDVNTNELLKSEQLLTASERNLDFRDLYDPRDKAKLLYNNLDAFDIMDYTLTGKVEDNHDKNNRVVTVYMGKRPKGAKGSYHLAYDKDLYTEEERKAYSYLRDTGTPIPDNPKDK
As to the kind of experiment: viability-normalized secreted streptokinase activity reduction – plasminogen activation absorbance, OD405, dose response (AID 1914).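 Note: secreted streptokinase activity via plasminogen activation per viability signal from cell pellet.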 The assay is classed as functional, Streptococcus pyogenes M1 GAS.

Sequence of Albumin (P02769 whole entry): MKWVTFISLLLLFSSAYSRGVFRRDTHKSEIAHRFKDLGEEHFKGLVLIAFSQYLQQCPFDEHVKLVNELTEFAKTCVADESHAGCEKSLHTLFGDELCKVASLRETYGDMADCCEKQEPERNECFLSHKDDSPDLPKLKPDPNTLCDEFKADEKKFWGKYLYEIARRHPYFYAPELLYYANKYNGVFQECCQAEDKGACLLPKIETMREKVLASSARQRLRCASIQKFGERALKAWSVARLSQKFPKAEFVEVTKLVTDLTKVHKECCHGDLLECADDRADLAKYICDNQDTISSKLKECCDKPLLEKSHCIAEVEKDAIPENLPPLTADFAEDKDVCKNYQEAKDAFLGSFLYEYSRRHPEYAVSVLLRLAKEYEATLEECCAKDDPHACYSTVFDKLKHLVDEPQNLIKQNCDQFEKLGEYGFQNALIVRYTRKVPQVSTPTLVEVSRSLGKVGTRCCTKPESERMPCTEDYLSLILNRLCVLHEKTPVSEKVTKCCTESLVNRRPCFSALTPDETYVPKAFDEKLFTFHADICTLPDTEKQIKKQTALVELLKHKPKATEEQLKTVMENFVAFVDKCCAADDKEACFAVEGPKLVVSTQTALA
Sequence of DNA (cytosine-5)-methyltransferase 1 (P26358 whole entry): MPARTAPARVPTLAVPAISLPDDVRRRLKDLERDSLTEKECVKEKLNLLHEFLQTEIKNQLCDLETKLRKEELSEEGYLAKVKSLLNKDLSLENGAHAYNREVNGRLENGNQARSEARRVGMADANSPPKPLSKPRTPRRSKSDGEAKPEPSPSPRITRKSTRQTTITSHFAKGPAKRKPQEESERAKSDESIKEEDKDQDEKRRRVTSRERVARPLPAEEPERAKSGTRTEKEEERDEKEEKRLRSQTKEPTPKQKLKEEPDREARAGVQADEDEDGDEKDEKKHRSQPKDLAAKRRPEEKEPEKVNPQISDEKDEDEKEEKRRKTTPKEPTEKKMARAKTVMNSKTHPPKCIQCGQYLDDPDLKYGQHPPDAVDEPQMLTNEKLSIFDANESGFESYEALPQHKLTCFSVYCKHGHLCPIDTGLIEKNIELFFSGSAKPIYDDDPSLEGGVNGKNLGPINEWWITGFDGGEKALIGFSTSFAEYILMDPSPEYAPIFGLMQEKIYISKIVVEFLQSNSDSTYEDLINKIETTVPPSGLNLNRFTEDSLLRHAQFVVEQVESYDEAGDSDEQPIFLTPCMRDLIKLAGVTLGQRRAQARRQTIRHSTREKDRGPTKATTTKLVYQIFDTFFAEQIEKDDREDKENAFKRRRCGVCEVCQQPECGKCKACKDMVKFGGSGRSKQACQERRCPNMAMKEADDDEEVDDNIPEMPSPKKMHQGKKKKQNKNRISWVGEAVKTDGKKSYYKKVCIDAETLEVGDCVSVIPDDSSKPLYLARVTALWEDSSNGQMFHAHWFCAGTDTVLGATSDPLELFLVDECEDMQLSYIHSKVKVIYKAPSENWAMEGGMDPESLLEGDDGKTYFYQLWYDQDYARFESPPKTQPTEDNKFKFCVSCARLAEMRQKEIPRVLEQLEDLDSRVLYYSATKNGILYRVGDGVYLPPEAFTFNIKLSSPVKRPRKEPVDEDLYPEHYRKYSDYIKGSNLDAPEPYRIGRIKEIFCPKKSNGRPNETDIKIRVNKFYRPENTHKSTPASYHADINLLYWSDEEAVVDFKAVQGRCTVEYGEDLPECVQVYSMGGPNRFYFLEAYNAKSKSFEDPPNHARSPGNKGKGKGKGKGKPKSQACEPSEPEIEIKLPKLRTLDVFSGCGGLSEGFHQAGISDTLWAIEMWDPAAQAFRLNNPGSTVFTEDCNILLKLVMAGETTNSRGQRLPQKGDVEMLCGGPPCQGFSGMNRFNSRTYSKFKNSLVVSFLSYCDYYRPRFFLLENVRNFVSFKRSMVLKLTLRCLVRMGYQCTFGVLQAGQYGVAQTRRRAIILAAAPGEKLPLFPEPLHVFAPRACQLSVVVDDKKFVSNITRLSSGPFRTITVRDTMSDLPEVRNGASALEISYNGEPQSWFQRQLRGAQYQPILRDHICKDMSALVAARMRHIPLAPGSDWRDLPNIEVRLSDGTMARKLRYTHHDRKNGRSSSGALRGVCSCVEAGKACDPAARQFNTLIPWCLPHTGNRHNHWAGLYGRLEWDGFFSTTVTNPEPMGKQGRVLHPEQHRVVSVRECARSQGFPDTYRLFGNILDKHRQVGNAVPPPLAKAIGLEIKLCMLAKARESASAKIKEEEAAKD
Sequence of SWI/SNF-related matrix-associated actin-dependent regulator of chromatin subfamily A member 2 (P51531 whole entry): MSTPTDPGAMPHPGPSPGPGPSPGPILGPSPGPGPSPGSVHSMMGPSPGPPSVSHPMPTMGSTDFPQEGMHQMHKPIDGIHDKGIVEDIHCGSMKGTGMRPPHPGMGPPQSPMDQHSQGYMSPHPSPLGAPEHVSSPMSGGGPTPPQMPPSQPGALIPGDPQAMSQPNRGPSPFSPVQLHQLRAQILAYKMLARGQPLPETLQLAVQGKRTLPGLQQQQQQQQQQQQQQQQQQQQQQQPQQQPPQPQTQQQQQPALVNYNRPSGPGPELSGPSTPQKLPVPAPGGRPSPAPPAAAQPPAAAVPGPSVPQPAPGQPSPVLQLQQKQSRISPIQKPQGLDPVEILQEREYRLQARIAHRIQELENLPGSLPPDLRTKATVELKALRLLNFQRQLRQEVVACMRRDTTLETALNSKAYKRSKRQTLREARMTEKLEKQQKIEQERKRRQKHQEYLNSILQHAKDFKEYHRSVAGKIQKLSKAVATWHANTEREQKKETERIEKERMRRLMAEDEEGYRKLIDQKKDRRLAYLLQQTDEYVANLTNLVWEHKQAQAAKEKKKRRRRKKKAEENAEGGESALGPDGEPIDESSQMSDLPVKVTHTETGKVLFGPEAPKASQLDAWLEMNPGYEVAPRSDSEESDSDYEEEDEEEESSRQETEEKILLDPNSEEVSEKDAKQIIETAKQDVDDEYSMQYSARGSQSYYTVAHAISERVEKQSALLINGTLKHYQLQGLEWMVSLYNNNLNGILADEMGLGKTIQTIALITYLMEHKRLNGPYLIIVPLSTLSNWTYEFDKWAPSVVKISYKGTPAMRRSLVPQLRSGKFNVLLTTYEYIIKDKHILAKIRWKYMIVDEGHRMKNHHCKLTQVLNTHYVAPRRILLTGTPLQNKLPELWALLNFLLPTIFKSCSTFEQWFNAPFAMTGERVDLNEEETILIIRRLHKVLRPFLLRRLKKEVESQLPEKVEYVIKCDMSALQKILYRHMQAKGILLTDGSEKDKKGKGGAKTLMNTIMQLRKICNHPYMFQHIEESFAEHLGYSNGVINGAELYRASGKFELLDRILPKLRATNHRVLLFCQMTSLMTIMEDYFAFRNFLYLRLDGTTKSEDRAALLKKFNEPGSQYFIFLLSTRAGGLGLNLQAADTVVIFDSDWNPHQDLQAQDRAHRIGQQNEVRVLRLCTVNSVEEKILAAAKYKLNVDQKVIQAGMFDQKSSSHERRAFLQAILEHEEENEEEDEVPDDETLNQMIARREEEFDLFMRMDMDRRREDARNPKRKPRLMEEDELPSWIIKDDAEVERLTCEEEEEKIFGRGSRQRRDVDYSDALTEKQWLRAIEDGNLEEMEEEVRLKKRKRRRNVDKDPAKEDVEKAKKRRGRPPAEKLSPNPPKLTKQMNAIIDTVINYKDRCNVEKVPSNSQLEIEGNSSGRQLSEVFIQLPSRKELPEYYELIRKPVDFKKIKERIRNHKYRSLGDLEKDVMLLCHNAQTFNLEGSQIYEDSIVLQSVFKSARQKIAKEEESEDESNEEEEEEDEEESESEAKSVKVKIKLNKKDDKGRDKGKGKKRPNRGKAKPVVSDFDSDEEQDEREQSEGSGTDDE

As a reminder, the AC50 is the concentration giving half of the maximal activity seen. In the case of `C[C@H](CO)N1C[C@H](C)[C@H](CN(C)S(=O)(=O)c2ccccc2)Oc2ccc(NC(=O)NC3CCCCC3)cc2CC1=O`, the AC50 in assay [1] is 0.98 µM (active); in assay [2], 46.9 µM (active); in assay [3] it was 4.13 µM (active); in assay [4] it was 1.59 µM (active); in assay [5] it was 2.01 µM (active).

One may read the IC50 as the concentration needed to halve the response being measured. In the case of `COc1cc2cc(Oc3ccc4ccc(=O)oc4c3)c(=O)oc2cc1O[C@@H]1O[C@H](CO)[C@@H](O)[C@H](O)[C@H]1O` [DAPHNORIN], the AC50 in [6] is 87.2 µM (active). In assay [7], the IC50 was 7.56 µM (active).

Broadly, the EC50 is the midpoint of the concentration-response curve. Consider `COc1ccccc1NS(=O)(=O)c1cc(NC(=O)/C=C/c2cccs2)ccc1N1CCOCC1`, for which the EC50 in assay [8] and in assay [9] was > 91.2 µM (inactive) throughout.

With `Cc1cccc(-c2ccc([C@@H]3[C@H](CO)N4CCCCN(CCC(F)(F)F)C[C@@H]34)cc2)c1`, the AC50 in [10] was 17.7 µM (active); in [11], 10.7 µM (active); in assay [12] it was 14.9 µM (active); in [13] it was 28.8 µM (active); in assay [14] it was 0.978 µM (active).

For `COc1cccc(C(=O)NNC(=O)c2ccc3ccccc3c2O)c1`, the IC50 at Albumin was > 94.1 µM (inactive). The EC50 is > 150 µM (inconclusive) in assay [15] and > 38 µM (not active) in assay [16].

With `O=C(NNC(=S)NC(=O)c1cccnc1)c1ccc(F)cc1`, the IC50 at Albumin is > 94.1 µM (inactive).

With `CCOC(=O)NC1CCc2cc(OC)c(OC)c(OC)c2-c2ccc(SC)c(=O)cc21` (centres undefined), the IC50 is > 0.0309 µM (active) in assay [17] and > 67.5 µM (inactive) in the assay “cells”.

In the case of `Cc1ccc(S(=O)(=O)N2[C@@H](c3cccc(Cl)c3)C(C(=O)O)=CC[C@H]2c2cccc(C)c2)cc1`, the AC50 in assay [6] was 48.3 µM (active).

For the compound `COc1ccc(C(=O)NCCS(=O)(=O)NCCc2ccccc2)cc1`, the IC50 (in assay [17]; in “cells”) was > 67.5 µM (inactive) in each case.

For `Cc1ccc2c(C)nc(Nc3nc(O)cc(CSc4nnnn4-c4ccccc4)n3)nc2c1`, the AC50 is 12.5 µM (active) in assay [1], 25.2 µM (active) in assay [2], 20.5 µM (active) in assay [4] and 25.3 µM (active) in [5].

In the case of `O=C(CN1C(=O)S/C(=C\c2cccs2)C1=O)Nc1ccc(O)cc1C(=O)O`, in assay [6], the AC50 was 94.3 µM (active).

In the case of `O=C(Nc1ccc(OC(F)F)cc1)Nc1cccc(C(F)(F)F)c1`, the AC50 in assay [1] is 5.35 µM (active); in assay [10], 6.99 µM (active); in [2], 16.1 µM (active); in assay [3], 11 µM (active); in assay [4], 5.03 µM (active); with INS1 it was 6.07 µM (active). In addition, the AC50 in assay [12] is 32 µM (active); in [5] it was 10.5 µM (active); in [13], 10.9 µM (active). Besides, the IC50 with HEK293 [18] is 6.17 µM (active); in the assay on HEK293 [20] it was 4.14 µM (inactive); in the assay with HEK293 [22], 3.04 µM (active). For the same compound, the EC50 in the assay on Streptococcus was 44.9 µM (active); in assay [19], 13.3 µM (active); with HEK293 [21] it was 8.15 µM (active); on Streptokinase A, > 150 µM (not active).

The values above are taken from ChEMBL document CHEMBL1201862, “PubChem BioAssay data set” (2004).
